Patent US8946413B2 (Pfizer Inc., priority 2008, dated 2015)
Read-outs that look alike come from different tables or passages of the source.

Target: T1, CCR2 (Homo sapiens, UniProt P41597)
T1 construct: (leukophoresis pack); host or cells: human peripheral blood mononuclear cells (PBMCs) from a normal human leukophoresis pack
Assay: hCCR2 (125-I hMCP-1) small molecule binding assay on human PBMCs
Details: 125I-MCP-1, human PBMCs
Excerpt: The CCR2 antagonist activity of compounds of the invention can be reported as the inhibitor concentration required for 50% inhibition (IC50 values) of specific binding in receptor binding assays using 125I-labeled MCP-1, as ligand, and Peripheral Blood Mononuclear Cells (PBMCs) prepared from normal human whole blood via density gradient centrifugation. Specific binding is defined as the total binding (e.g., total cpm on filters) minus the non-specific binding. Non-specific binding is defined as the amount of cpm still defected in the presence of excess unlabeled competitor (e.g., MCP-1),
Human PBMCs were used to test compounds of the invention in a binding assay. For example, 200,000 to 500,000 cells were incubated with 0.1 to 0.2 nM 125I-labeled MCP-1, with or without unlabeled competitor (10 nM MCP-1) or various concentrations of compounds to be tested. 125I-labeled MCP-1, were prepared by suitable methods or purchased from commercial vendors (Perkin Elmer, Boston Mass.). The binding reactions were performed in 50 to 250 μL of a binding buffer consisting of […] pH 7.2, and 0.1% BSA (bovine serum albumin), for 30 minutes at room temperature. The binding reactions were terminated by harvesting the membranes by rapid filtration through glass fiber filters (Perkin Elmer) which was presoaked in 0.3% polyethyleneimine or Phosphate Buffered Saline (PBS). The filters were rinsed with approximately 600 μL of binding buffer containing, 0.5 M NaCl or PBS, then dried, and the amount of bound radioactivity was determined by counting on a Gamma Counter (Perkin Elmer).
More specifically, the following assay may be employed to determine IC50 values for the compounds of the present invention.
hCCR2 (125-I hMCP-1) Small Molecule Binding Assay
Normal human leukophoresis pack contents, available from Biological Specialty Corporation, Colmar, Pa., is diluted 1:1 with PBS, divided into 50 ml conical tubes (preferably less than 40 mls per tube), and underlayed with 10 mls of Ficoll-Paque PLUS (GE Healthcare 17-1440-02). The tubes are centrifuged at 2800 rpm in a clinical centrifuge at room temperature for 30 mins, with no brake. The plasma layer is suctioned, and the buffycoat layer is collected. The collected buffycoat layer is washed twice with 50 mls PBS, and centrifuged at 1400 rpm with brake. The cells are counted. The cells are then diluted to 1×10^7 cells per ml in binding buffer.
96 well plates (such as, for example, Millipore MultiScreen96 plates) are pre-wet with about 100 μl binding buffer (RPMI+0.1% BSA+20 mM HEPES), and blotted just prior to compound addition.
5 μl of 50 μM test compounds in 100% DMSO are dotted onto U-bottom polypropylene 96-well plates.
245 μl per well of Binding Buffer is added to each well for 1 μM compound concentration in 2% DMSO.
50 μl of 1 μM compound is transferred to pre-wetted Millipore plates. 50 μl per well of 1×10E7 cells per ml of freshly prepared human PBMCs are added.
The samples are pre-incubated at room temperature for 30 minutes or 1 hour.
50 μl of 450 pM 125-I-hMCP-1 (Perkin-Elmer/NEN cat#NEX332025UC) is added for a final concentration 125-I-hMCP-1 of 150 pM per well.
The final test compound concentration is 0.333 uM in 150 μl total volume with 0.67% DMSO in all wells. Controls for this assay consist of 0% inhibition and 100% inhibition with 1 uM hMCP-1 (saturating conditions). All wells are run in duplicate. Controls may be in replicates of eight.
The samples are incubated at room temperature for 30 minutes.
The buffer is suctioned through the Millipore plates. The plates are washed three times with Wash Buffer (PRMI+0.1% BSA+20 mM HEPES+ 0.4 M NaC).
The plate underdrain is removed. The plate filters are allowed to dry. The filters are then punched out into plastic tubes.
Finally, the sample is counted an a Gamma Counter.
All IC50 plates were repeated for an n=2.
The following table summarizes the IC50 values identified through the described assay.

[1] = 30 min preincubation, read-out: IC50 (nM) 30 min preinc
[2] = 1 hr preincubation, read-out: IC50 (nM) 1 hr preinc

T1 sequence (P41597 whole entry): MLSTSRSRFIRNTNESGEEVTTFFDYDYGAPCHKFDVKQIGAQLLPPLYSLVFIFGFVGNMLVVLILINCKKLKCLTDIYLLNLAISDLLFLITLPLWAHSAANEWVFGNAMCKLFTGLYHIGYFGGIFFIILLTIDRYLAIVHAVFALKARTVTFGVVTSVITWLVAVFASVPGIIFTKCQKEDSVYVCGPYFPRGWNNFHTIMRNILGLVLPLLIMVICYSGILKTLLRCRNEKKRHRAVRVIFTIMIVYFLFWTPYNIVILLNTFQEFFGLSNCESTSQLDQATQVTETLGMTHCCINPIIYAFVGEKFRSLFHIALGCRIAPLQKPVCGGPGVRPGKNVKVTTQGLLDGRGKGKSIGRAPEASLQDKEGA

| Structure (SMILES) | IC50 [1] | IC50 [2] |
| --- | --- | --- |
| CO[C@@H]1COCC[C@@H]1N[C@@H]1CC[C@](CC(F)(F)F)(C(=O)N2C[C@@H]3C[C@H]2CN3c2cc(C(F)(F)F)ccn2)C1 [Example 33, 1,5-anhydro-2,3-dideoxy-4-O-methyl-3-{[(1R,3S)-3-(2,2,2-trifluoroethyl)-3-({(1S,4S)-5-[4-(trifluoromethyl)pyridin-2-yl]-2,5-diazabicyclo[2.2.1]hept-2-yl}carbonyl)cyclopentyl]amino}-D-erythro-pentitol] | 57.3 nM | 11.7 nM |
| CO[C@@H]1COCC[C@@H]1N[C@@H]1CC[C@](CC(F)(F)F)(C(=O)N2C[C@@H]3C[C@H]2CN3c2ccnc(C(F)(F)F)c2)C1 [Example 34, 1,5-anhydro-2,3-dideoxy-4-O-methyl-3-{[(1R,3S)-3-(2,2,2-trifluoroethyl)-3-({(1S,4S)-5-[2-(trifluoromethyl)pyridin-4-yl]-2,5-diazabicyclo[2.2.1]hept-2-yl}carbonyl)cyclopentyl]amino}-D-erythro-pentitol] | 66.5 nM | 6.94 nM |
| CO[C@@H]1COCC[C@@H]1N[C@@H]1CC[C@](CC(F)(F)F)(C(=O)N2C[C@@H]3C[C@H]2CN3c2nccc(C(F)(F)F)n2)C1 [Example 35, 1,5-anhydro-2,3-dideoxy-4-O-methyl-3-{[(1R,3S)-3-(2,2,2-trifluoroethyl)-3-({(1S,4S)-5-[4-(trifluoromethyl)pyrimidin-2-yl]-2,5-diazabicyclo[2.2.1]hept-2-yl}carbonyl)cyclopentyl]amino}-D-erythro-pentitol] | 28.4 nM | 5.52 nM |
| CO[C@@H]1COCC[C@@H]1N[C@@H]1CC[C@](CC(F)(F)F)(C(=O)N2C[C@@H]3C[C@H]2CN3c2cccc(C(F)(F)F)n2)C1 [Example 36, 1,5-anhydro-2,3-dideoxy-4-O-methyl-3-{[(1R,3S)-3-(2,2,2-trifluoroethyl)-3-({(1S,4S)-5-[6-(trifluoromethyl)pyridin-2-yl]-2,5-diazabicyclo[2.2.1]hept-2-yl}carbonyl)cyclopentyl]amino}-D-erythro-pentitol] | 12.6 nM | 2.19 nM |
| CO[C@@H]1COCC[C@@H]1N[C@@H]1C=C[C@@](C(=O)N2C[C@@H]3C[C@H]2CN3c2cc(C(F)(F)F)ccn2)(C(C)C)C1 [Example 40, 1,5-anhydro-2,3-dideoxy-3-{[(1S,4S)-4-isopropyll-4-({(1S,4S)-5-[4-(trifluoromethyl)pyridin-2-yl]-2,5-diazabicyclo[2.2.1]hept-2-yl}carbonyl)cyclopent-2-en-1-yl]amino}-4-O-methyl-D-erythro-pentitol] | 18.3 nM |  |
| CO[C@@H]1COCC[C@@H]1N[C@@H]1C=C[C@@](C(=O)N2C[C@@H]3C[C@H]2CN3c2cccc(C(F)(F)F)n2)(C(C)C)C1 [Example 42, 1,5-anhydro-2,3-dideoxy-3-{[(1S,4S)-4-isopropyll-4-({(1S,4S)-5-[6-(trifluoromethyl)pyridin-2-yl]-2,5-diazabicyclo[2.2.1]hept-2-yl}carbonyl)cyclopent-2-en-1-yl]amino}-4-O-methyl-D-erythro-pentitol] | 70.9 nM |  |
| CO[C@@H]1COCC[C@@H]1N[C@@H]1C=C[C@@](C(=O)N2C[C@@H]3C[C@H]2CN3c2cncc(C(F)(F)F)n2)(C(C)C)C1 [Example 43, 1,5-anhydro-2,3-dideoxy-3-{[(1S,4S)-4-isopropyll-4-({(1S,4S)-5-[6-(trifluoromethyl)pyrazin-2-yl]-2,5-diazabicyclo[2.2.1]hept-2-yl}carbonyl)cyclopent-2-en-1-yl]amino}-4-O-methyl-D-erythro-pentitol] | 47.3 nM |  |
| CO[C@@H]1COCC[C@@H]1N[C@@H]1CC[C@](CC(F)(F)F)(C(=O)N2C[C@@H]3C[C@H]2CN3C(=O)OC(C)(C)C)C1 [Example 44, 1,5-anhydro-3-{[(1R,3S)-3-{[(1S,4S)-5-(tert-butoxycarbonyl)-2,5-diazabicyclo[2.2.1]hept-2-yl]carbonyl}-3-(2,2,2-trifluoroethyl)cyclopentyl]amino}-2,3-dideoxy-4-O-methyl-D-erythro-pentitol] |  | 8.1 nM |
| CO[C@@H]1COCC[C@@H]1N[C@@H]1CC[C@@](C(=O)N2C[C@@H]3C[C@H]2CN3c2cccc(C(F)(F)F)n2)(C2(O)CCC2)C1 [Example 45, 1,5-anhydro-2,3-dideoxy-3-{[(1R,3S)-3-(1-hydroxycyclobutyl)-3-({(1S,4S)-5-[6-(trifluoromethyl)pyridin-2-yl]-2,5-diazabicyclo[2.2.1]hept-2-yl}carbonyl)cyclopentyl]amino}-4-O-methyl-D-erythro-pentitol] | 25.3 nM |  |
| CO[C@@H]1COCC[C@@H]1N[C@@H]1CC[C@@](C(=O)N2C[C@@H]3C[C@H]2CN3c2nccc(C(F)(F)F)n2)(C2(O)CCC2)C1 [Example 47, 1,5-anhydro-2,3-dideoxy-3-{[(1R,3S)-3-(1-hydroxycyclobutyl)-3-({(1S,4S)-5-[4-(trifluoromethyl)pyrimidin-2-yl]-2,5-diazabicyclo[2.2.1]hept-2-yl}carbonyl)cyclopentyl]amino}-4-O-methyl-D-erythro-pentitol] | 6.16 nM |  |

Now from value to compound:

| IC50 [1] | IC50 [2] | Structure (SMILES) |
| --- | --- | --- |
|  | 3.68 nM | CO[C@@H]1COCC[C@@H]1N[C@@H]1CC[C@](CC(F)(F)F)(C(=O)N2C[C@@H]3C[C@H]2CN3c2cncc(C(F)(F)F)n2)C1 [Example 37] |
| 68.7 nM | 2.02 nM | CO[C@@H]1COCC[C@@H]1N[C@@H]1CC[C@](CC(F)(F)F)(C(=O)N2C[C@@H]3C[C@H]2CN3c2ccnc(C(F)(F)F)n2)C1 [Example 38, 1,5-anhydro-2,3-dideoxy-4-O-methyl-3-{[(1R,3S)-3-(2,2,2-trifluoroethyl)-3-({(1S,4S)-5-[2-(trifluoromethyl)pyrimidin-4-yl]-2,5-diazabicyclo[2.2.1]hept-2-yl}carbonyl)cyclopentyl]amino}-D-erythro-pentitol] |
| 82.9 nM | 5.81 nM | CO[C@@H]1COCC[C@@H]1N[C@@H]1CC[C@](CC(F)(F)F)(C(=O)N2C[C@@H]3C[C@H]2CN3c2cc(C(F)(F)F)cnn2)C1 [Example 39, 1,5-anhydro-2,3-dideoxy-4-O-methyl-3-{[(1R,3S)-3-(2,2,2-trifluoroethyl)-3-({(1S,4S)-5-[5-(trifluoromethyl)pyridazin-3-yl]-2,5-diazabicyclo[2.2.1]hept-2-yl}carbonyl)cyclopentyl]amino}-D-erythro-pentitol] |
| 63.6 nM |  | CO[C@@H]1COCC[C@@H]1N[C@@H]1C=C[C@@](C(=O)N2C[C@@H]3C[C@H]2CN3c2nccc(C(F)(F)F)n2)(C(C)C)C1 [Example 41, 1,5-anhydro-2,3-dideoxy-3-{[(1S,4S)-4-isopropyll-4-({(1S,4S)-5-[4-(trifluoromethyl)pyrimidin-2-yl]-2,5-diazabicyclo[2.2.1]hept-2-yl}carbonyl)cyclopent-2-en-1-yl]amino}-4-O-methyl-D-erythro-pentitol] |
| 3.19 nM |  | CO[C@@H]1COCC[C@@H]1N[C@@H]1CC[C@@](C(=O)N2C[C@@H]3C[C@H]2CN3c2cc(C(F)(F)F)ccn2)(C2(O)CCC2)C1 [Example 46, 1,5-anhydro-2,3-dideoxy-3-{[(1R,3S)-3-(1-hydroxycyclobutyl)-3-({(1S,4S)-5-[4-(trifluoromethyl)pyridin-2-yl]-2,5-diazabicyclo[2.2.1]hept-2-yl}carbonyl)cyclopentyl]amino}-4-O-methyl-D-erythro-pentitol] |
